For series [1] the following is noted: cited from earlier work.
The nature of series [2]: pH of organic amine stabilizers (Table 1, mostly determined experimentally). Type of series: physicochemical. Conditions: pH in water, some from the literature. The text has this: The fluid also comprises an organic amine stabilizing agent that has a first pKa or a pH in water of at least about 9.5. The organic amine preferably has from 1-20 carbon atoms, more preferably 1-10 carbon atoms. In one particularly preferred embodiment, the organic amine has the formula: […]
Table 1 below lists a number of organic amines that can be used as stabilizers in the present invention. The pKa values in the table are from the literature; the pH values in the table were mostly determined experimentally, although some were taken from the literature.

Series [3] in a line: Typical pH of fracturing fluid with TEPA as the stabilizer. The class given is physicochemical. Conditions: TEPA used as the stabilizer. The text has this:
where R1 is C1 -C4 alkyl and n is from 1-6. Preferably R1 is ethylene and n is 4. This preferred amine, tetraethylenepentamine (TEPA), is available from Dow Chemical.

Series [4] is described as follows: Viscosity retention of CMHPG linear gels after aging at 325° F. (Example 1, Table 2). The class given is physicochemical. The following applies: TEPA 5 gpt, no secondary additive. As to the method: Aqueous polymer solutions were aged in an air oven at elevated temperatures, and their viscosity was measured before and after the aging. […] The base gels were made in 1 liter quantities, and stored in Nalgene-type plastic bottles. The viscosity of each batch of base gel was measured at 70° F. on a Contraves LS-30 viscometer to establish the baseline for that batch.

The source of these data is US6227295A, “High temperature hydraulic fracturing fluid” (Schlumberger Technology Corporation, priority 1999, dated 2001).

The pKa is the pH at which an ionisable group is half protonated.

Values joined by “and” are separate entries in the source; they are usually repeats but may differ in a detail not shown here. Identical values can stand only once. Like-named read-outs stand apart in the source and are kept apart here.

Turning to `CCCCCCCCCCN` [n-decylamine], the pKa in series [1] is 10.6.
`NCCCN` [1,3-diaminopropane]: the pKa in series [1] was 10.9; in series [1] (second value) it was 9.0.
Take `NCCN(CCN)CCN` [TAA, tris-(2-aminoethyl)amine]: in series [2], the pH is 11.25.
For the compound `NCCCOCCCCOCCCN` [NDPA-12, di-(gamma-aminopropylether) of 1,4-butane diol], in series [2], the pH amounted to 11.55.
`CCCCCCCCCCCCN` [DDA, dodecylamine]: the pH in series [2] stood at 10.22.
Consider `NCCCCN` [tetramethylenediamine], for which, in series [1], the pKa is recorded as 10.7.
As for `NCCNCCNCCNCCN` [tetraethylenepentamine], the “pH of the fluid” value in series [3] is “about 10.8”. Also, the “% of initial viscosity after 2 hrs.” value in series [4] (325° F.) is 93% and 63%. The “pH (Comments)” value in series [4] was found to be 11.50. The pH in series [2] is recorded as 11.29.
As to `CCN(O)CC` [DHA, N,N-diethylhydroxylamine], the pH in series [2] turned out to be 11.06.
Still for that read-out and setting: in the case of `NCCCNCCNCCCN` [BAPED, N,N'-bis(3-aminopropyl)ethylene-diamine] it was 11.72.
Regarding `NCCCOCCOCCCN` [NDPA-10, di-(gamma-aminopropylether) of ethylene glycol], the pH in series [2] was determined as 11.58.
The compound `NCCNCCN` [diethylenetriamine] yielded a pH in series [2] of 11.42.
As for `NCCN` [ethylenediamine], the figures for the pKa in series [1] and in series [1] (second value) were 10.7 and 7.6, respectively.
Regarding `NCCCCCCN` [hexamethylenediamine], the pKa in series [1] was 11.9.
As for `CC(N)CN` (stereo not drawn) [1,2-diaminopropane], the values for the pKa in series [1] and in series [1] (second value) were 9.8 and 6.6, respectively.
Compound `CC(COCCCN)COCCCN` [DPA-12, di-(gamma-aminopropylether) of 2-methyl-1,3-propane diol] showed a pH in series [2] of 11.41.
`CCCCN` [n-butylamine]: the pKa in series [1] is reported as 10.8.
Take `NCCCCN` [1,4-diaminobutane]: the pKa in series [1] was 11.2; in series [1] (second value), 9.7.
